Assay in all cases: Post-emergence foliage spray, pot culture, fresh weight inhibition (Tables 1-48, 51-98, 101-148; 24 days)
Holding throughout (format): in vivo

For assay [1], the system named is Chenopodium album. The essentials:
(§1)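 Pot-grown weeds were thinned to 15 per pot (45 per treatment) and sprayed on foliage at the 5–6-leaf stage for grasses or the 6–7-leaf stage for broadleaves. Agents were dissolved in acetone with 0.1% Tween-80 and applied at 450 kg/ha spray volume and 0.3 MPa. Plants were then kept in a greenhouse. Above-ground fresh weight of survivors, with dead plants counted as zero, gave inhibition versus a solvent/emulsifier blank.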

Assay [2] concerns Acalypha australis. An excerpt:
Table 1-48, 51-98, 101-148: Echinochloa crusgalli var. zelayensis, Eclipta prostrate, Galium aparine L., Alopecurus aequalis, Alopecurus japonicus, Lindernia procumbens, Veronica persica^1, Malachium aquaticum, Beckmannia syzigachne, Stellaria media were collected in Huai'an of Jiangsu Province; Commelina communis, Sonchus arvensis, Setaria glauca, Chloris virgata, Setaria faberi, Sonchus oleraceus L., Echinochloa oryzoides, Cirsium setosum, Xanthium strumarium were collected in Qiqiha'er of Heilongjiang Province; Sinapis arvensis, Veronica persica^2 were collected in Zhumadian of Henan Province; Ludwigia prostrate, Ammannia arenaria were collected in Zhuji of Zhejiang Province; Amaranthus retrojlexus, Descurainia sophia, Digitaria sanguinalis, Setaria viridis, Conyza Canadensis, Capsella bursa-pastoris, Eleusine indica, Ipomoea purpurea, Abutilon theophrasti, Chenopodium album, Acalypha australis, Solanum nigrum were collected in Qingdao of Shandong Province; Echinochloa caudate were collected in Pingluo of Ningxia Province.
The above weeds were cultivated by a pot culture method. […] Full and uniform weed seeds were selected, soaked in warm water at 25° C. for 6 hours, and germinated in a 28° C. biochemical incubator (darkness). The weed seeds that had just germinatedwere evenly placed on the surface of the soil and then covered with 0.5-1 cm soil according to the sizes of seeds.
The culture was carried out in a controllable sunlight greenhouse at 20 to 30° C., in natural light, and relative humidity of 57% to 72%.
The technical materials were all dissolved in acetone, and diluted with an aqueous solution containing 0.1% emulsifier Tween-80. The dilution is performed as required.
A ratio of the active ingredient A to the active ingredient B and amounts thereof in each group depends on the characteristics and toxicity of the two agents, as well as the main application purpose of a corresponding formulation. Based on the pre-tests in this study, the dosage of the active ingredient A and B applied alone and in combination were shown in the tables. Water containing the solvent and emulsifier same with the above groups but free of the agents was used as a blank control.
Table 1-48, 51-98, 101-148, 151-206: […] per treatment, that is, a total of 60 weeds were treated in one treatment.
Table 1-48, 51-98, 101-148: The agents were used for only once in the experiment. In the stage of weeds with 3˜4 leaves, the weeds were thinned out to maintain 15 weeds per pot and 45 weeds for each treatment, then continued to be cultured to 5˜6 leaves stage of grassy weeds, 6˜7 leaves stage of broadleaf weeds, and treated.
The well-cultured weeds were evenly placed on a platform with an area of 0.5 m^2, and a solution of agents was sprayed on the stems and leaves thereof by the 3WP-2000-type walking spray tower at a dosage of 450 kg/ha and at a spray pressure of 0.3 MPa. After all the solution was sprayed, the valve was closed. After 30 seconds, the door of the spray tower was opened, and the nutritional bowl was taken out. Then the valve was opened, and the spray tube was cleaned by spraying 50 ml of water.
A pot-culture method was employed. For the cultivation of weeds, please refer to the Section 1.1), and “Pesticide guidelines for laboratory bioactivity tests—herbicides”. As to a method for applying agents, please refer to the section 2.3.2), that is, a foliage treatment was employed. After the treatment, the weeds were routinely cultured in a greenhouse.
A method for investigating absolute number was employed, wherein whole seedlings of survival weeds were cut off with a blade along the soil surface, and the fresh weight of the weeds was weighed with an analytical balance. For dead weeds, the fresh weight thereof was zero.
Table 1-48, 51-98, 101-148, 207-216: The investigation was performed after 24 days of the treatment for only once.

The subject of assay [3] is Echinochloa caudate. Particulars: Echinochloa, 576 h, read-out: Control effect (%) of B applied alone in corresponding dose. The essentials:
as §1

The test system of assay [4] is Echinochloa crusgalli var. zelayensis. Conditions: Echinochloa crus-galli, 576 h, read-out: Control effect (%) of B applied alone in corresponding dose. In short, it runs like this:
as §1

The subject of assay [5] is Echinochloa oryzoides. Conditions: Echinochloa oryzoides, 576 h, read-out: Control effect (%) of B applied alone in corresponding dose. The essentials:
as §1

Where [6] appears, read: foliar, B 1.875 g a.i./ha, foliage spray, 24 days.
[7] abbreviates: foliar, B 3.75 g a.i./ha, foliage spray, 24 days.
The mark [8] stands for this setting: foliar, B 7.5 g a.i./ha, foliage spray, 24 days.
Setting [9] is: foliar, B 15 g a.i./ha, foliage spray, 24 days.

Like-named read-outs stand apart in the source and are kept apart here.

For the compound `N#Cc1cc(Br)c(O)c(Br)c1` [bromoxynil], the “Control effect (%) of B applied alone in corresponding dose” value (“Control effect (%) of B applied alone” for short) in assay [1] (bromoxynil 18.75 g a.i./ha) is reported as 3.1%; in assay [1] (bromoxynil 37.5 g a.i./ha), 10.8%; in assay [1] (bromoxynil 75 g a.i./ha), 57.7%; in assay [1] (bromoxynil 150 g a.i./ha) it was 83.6%; in assay [2] (B 18.75 g a.i./ha) it was 4.6%; in assay [2] (B 37.5 g a.i./ha) it was 10.6%. Also, the “Control effect (%) of B applied alone” value in assay [2] (B 75 g a.i./ha) amounted to 58.9%; in assay [2] (B 150 g a.i./ha) it was 84.0%.
Take `O=C(O)COC(=O)c1cc(Oc2ccc(C(F)(F)F)cc2Cl)ccc1[N+](=O)[O-]` [fluoroglycofen]: the “Control effect (%) of B applied alone” value in assay [1] (Table 92, 0.9375 g a.i./ha) is on record as 2.3%; in assay [1] (Table 92, 1.875 g a.i./ha) it was 12.8%; in assay [1] (Table 92, 3.75 g a.i./ha), 40.0%; in assay [1] (Table 92, 7.5 g a.i./ha), 70.6%; in assay [2] (B 0.9375 g a.i./ha), 4.0%; in assay [2] (B 1.875 g a.i./ha), 15.7%. Also, the “Control effect (%) of B applied alone” value in assay [2] (B 3.75 g a.i./ha) was 41.6%; in assay [2] (B 7.5 g a.i./ha) it was 71.4%.
For the compound `COc1cnc(OC)n2nc(NS(=O)(=O)c3c(OCC(F)F)cccc3C(F)(F)F)nc12` [penoxsulam], the pest or weed control at 1.875 g/ha in assay [3] (penoxsulam 1.875 g a.i./ha) is 3.8%; in assay [4] (setting [6]), 2.4%; in assay [5] (Table 101, 1.875 g a.i./ha), 4.7%. Moreover, the pest or weed control at 3.75 g/ha was 15.6% in assay [3] (penoxsulam 3.75 g a.i./ha); 10.9% in assay [4] (setting [7]); 13.8% in assay [5] (Table 101, 3.75 g a.i./ha). Besides, the pest or weed control at 7.5 g/ha stood at 46.5% in assay [3] (penoxsulam 7.5 g a.i./ha); 48.8% in assay [4] (setting [8]); 47.9% in assay [5] (Table 101, 7.5 g a.i./ha). In addition, the pest or weed control at 15 g/ha stood at 69.4% in assay [3] (penoxsulam 15 g a.i./ha); 70.1% in assay [4] (setting [9]); 68.4% in assay [5] (Table 101, 15 g a.i./ha).
As to `CCS(=O)(=O)c1cccnc1S(=O)(=O)NC(=O)Nc1nc(OC)cc(OC)n1` [rimsulfuron], the pest or weed control at 1.875 g/ha in assay [3] (rimsulfuron 1.875 g a.i./ha) came out at 5.5%; in assay [4] (setting [6]), 7.7%; in assay [5] (Table 106, 1.875 g a.i./ha) it was 10.3%. Also, the pest or weed control at 3.75 g/ha in assay [3] (rimsulfuron 3.75 g a.i./ha) came to 25.3%; in assay [4] (setting [7]), 25.5%; in assay [5] (Table 106, 3.75 g a.i./ha), 26.9%. The pest or weed control at 7.5 g/ha in assay [3] (rimsulfuron 7.5 g a.i./ha) came to 37.9%; in assay [4] (setting [8]), 39.7%; in assay [5] (Table 106, 7.5 g a.i./ha) it was 43.7%. In addition, the pest or weed control at 15 g/ha in assay [3] (rimsulfuron 15 g a.i./ha) amounted to 65.8%; in assay [4] (setting [9]), 67.7%; in assay [5] (Table 106, 15 g a.i./ha) it was 69.6%.
In the case of `Cc1nn(-c2cc(NS(C)(=O)=O)c(Cl)cc2Cl)c(=O)n1C(F)F` [sulfentrazone], the pest or weed control at 1.875 g/ha in assay [3] (Table 97, 1.875 g a.i./ha) amounted to 6.6%; in assay [4] (sulfentrazone 1.875 g a.i./ha) it was 2.8%; in assay [5] (B 1.875 g a.i./ha) it was 5.8%. Also, the pest or weed control at 3.75 g/ha in assay [3] (Table 97, 3.75 g a.i./ha) was found to be 10.8%; in assay [4] (sulfentrazone 3.75 g a.i./ha), 15.4%; in assay [5] (B 3.75 g a.i./ha), 18.1%. The pest or weed control at 7.5 g/ha in assay [3] (Table 97, 7.5 g a.i./ha) turned out to be 24.5%; in assay [4] (sulfentrazone 7.5 g a.i./ha), 26.9%; in assay [5] (B 7.5 g a.i./ha), 29.7%. The pest or weed control at 15 g/ha was 52.6% in assay [3] (Table 97, 15 g a.i./ha); 54.1% in assay [4] (sulfentrazone 15 g a.i./ha); 56.1% in assay [5] (B 15 g a.i./ha).

(Values after patent US20220264878A1, “HERBICIDAL COMPOSITION CONTAINING R-TYPE PYRIDYLOXY CARBOXYLIC ACID DERIVATIVE AND USE THEREOF” (Qingdao Kingagroot Chemical Compound Co., Ltd., priority 2019, published 2022).)
